One test relates to Streptococcus mutans. The test is described as follows: Killing of Streptococcus mutans by lactoferrin variants and peptide. The conditions noted are these: synthetic peptide. Format: cell-based. The text has this: Caries is the single most common chronic childhood disease, five times more common than asthma. Over 70% of children […] have cavities. Over 108 million Americans lack dental health insurance so that treatment of this infection is lacking. S. mutans is considered one of the microbes most associated with dental decay.
Others have shown that lactoferrin peptides have antimicrobial activity, but no one to date has shown that the antibacterial activity derived from this peptide is useful against organisms in the oral cavity. We have also determined that the peptide will have limited usefulness in the oral cavity unless it is linked to something that will allow the peptide to bind to a surface in the oral cavity. A fusion peptide comprising lactoferrin and statherin was previously developed, wherein the lactoferrin portion provided antimicrobial activity while the statherin portion enabled the fusion peptide to adhere to the tooth surface. […]
Lactoferrin (Lf or LF) is a multifunctional protein that is found in mammary secretion, tears and saliva and in the gastrointestinal tract. […] Further we then determined that pure lactoferrin would have limited usefulness in the oral cavity unless it was linked to something that would allow it to bind to the oral cavity.

A further test has as its system bacteria. The conditions noted are these: cited from earlier work.
In the next test the test system is oral bacteria. The conditions noted are these: bacteria grown in a broth media; cited from earlier work.
For a further test, the system named is Candida. The experiment in a line: Two hour cell killing assay with supernatants from salivary-coated HAP or BECs. Format: cell-based. The conditions noted are these: sHAP incubated with peptide, washed, 1 hour release; 2 hour cell killing assay. The protocol:
The procedures depicted in FIG. 5 were carried out with two LF fusion peptides (ST-LF and PAK-LF). Salivary-coated HAP was incubated with ST-LF peptide for 30 minutes and then washed with PBS and the supernatant tested. Fresh PBS was added, and the salivary-coated HAP was further incubated for 1 hour. The salivary-coated HAP was again rinsed and the supernatant solution was then tested for anti-candidal activity. The results are depicted in FIG. 6.

For test [1] the following is noted: previously demonstrated; cited from earlier work.

Regarding “LF: FQWQRNMRKVR, lactoferrin peptide, lys form (listed as Homo sapiens)”, the “killing of Streptococcus mutans” value with Streptococcus mutans is “kills Streptococcus mutans”.
In the case of Penicillin, in the test on bacteria, the “adherence of bacteria to drug-treated, washed SHA” value is reported as “no effect”. Moreover, in the test with oral bacteria, the “effective concentration against oral bacteria” value is 1 µg/mL.
For “ST-LF: DDDEEKFQWQRNMRKVR, statherin-lactoferrin fusion peptide of PCT/US08/51165 (ST-LF fusion peptide)”, the “anti-candidal activity of supernatant from salivary-coated HAP” value in the test with Candida is “no inhibition of Candida”. For the same substance, the “binding to tooth enamel surfaces” value in test [1] is “bind to tooth enamel surfaces”.
